Key:
Format in all cases: cell-based, mouse
[1] = tested on: acetylated histones H3 and H4; assay: Western blot analysis of histone acetylation status; settings: 4242Eμ-myc lymphomas; 3.0 nmol/L romidepsin, 0.1 mmol/L oxamflatin; 24-h time course
Experimental: Eμ-myc lymphoma cells were lysed in lysis buffer [0.15 mol/L NaCl, 10 mmol/L Tris-HCl (pH 7.4), 5 μmol/L EDTA, 1% Triton X-100] supplemented with protease inhibitors (leupeptin, pepstatin, and phenylmethylsulfonyl fluoride; Sigma-Aldrich) as described previously (Lindemann et al., Proc. Nat. Acad. Sci. USA 104:8071-8078, 2007). Proteins (30-50 μg) were separated on 10% or 15% SDS polyacrylamide gels electroblotted onto Immobilon-P […] membranes (Millipore). Membranes were incubated with the following antibodies: anti-mouse Bcl-2 (BD PharMingen), anti-mouse Bcl-XL (BD PharMingen), anti-mouse Bcl-w (Chemicon Australia), anti-mouse Mcl-1 (Rockland), anti-mouse A1 (Sapphire Biosciences), anti-Flag tag (Sigma-Aldrich), anti-acetylated histone H3 and antiacetylated histone H4 (Upstate Biosystems), anti-β actin (Sigma-Aldrich), and anti-tubulin (Sigma-Aldrich) overnight at 4° C. followed by subsequent incubation with horseradish peroxidase-conjugated secondary antibodies (DAKO) Immunoreactive bands were visualized by enhanced chemiluminescence (Amersham).

[2] = tested on: 4242Eμ-myc/Bcl-2 lymphomas; assay: Cell cycle analysis of Eμ-myc/Bcl-2 cells treated with HDACi; settings: 4242/Bcl-2
Experimental: (§1) Next, the cell cycle profiles of Eμ-myc/Bcl-2 lymphomas treated with oxamflatin and romidepsin over 3 days were assessed.
(§2) […] Viability of cells as measured by trypan blue exclusion assay, propidium iodide uptake, Annexin V staining, cell cycle analysis, or tetramethylrhodamine ethyl ester staining were done as described (Lindemann et al., Proc. Nat. Acad. Sci. USA 104:8071-8078, 2007).

[3] = tested on: 226Eμ-myc/Bcl-2 lymphomas; assay: as above; settings: 226/Bcl-2
Experimental: as §1, §2

[4] = tested on: 4242Eμ-myc lymphomas; assay: In vitro cell death analysis (parental control of the Bcl-XL experiment)
Experimental: (§3) To determine if increased expression of Bcl-XL could confer resistance to romidepsin, 4242Eμ-myc/Bcl-XL lymphomas were produced and tested for sensitivity to HDACi.
Eμ-myc lymphoma cells (5×10^5/mL) were incubated in the presence of the indicated compounds for 20 h in 1 mL cell culture medium in 24-well plates (Greiner Bio-One). Viability of cells as measured by trypan blue exclusion assay, propidium iodide uptake, Annexin V staining, cell cycle analysis, or tetramethylrhodamine ethyl ester staining were done as described (Lindemann et al., Proc. Nat. Acad. Sci. USA 104:8071-8078, 2007).

[5] = tested on: 4242Eμ-myc/Bcl-XL lymphomas; assay: In vitro cell death analysis of Bcl-XL overexpressing lymphomas
From the text: as §3, §2

[6] = tested on: Eμ-myc/Bcl-2 lymphomas; assay: In vitro cell death analysis (propidium iodide staining, loss of MOMP)
Experimental: (§4) Three different primary Eμ-myc lymphomas overexpressing Bcl-2 and control vector-transduced Eμ-myc cells were tested for sensitivity to the histone deacetylase inhibitors (HDACi) oxamflatin and romidepsin.
(§5) The primary function of prosurvival Bcl-2 proteins is to inhibit the activity of Bak and Bax proteins and thereby protect the mitochondrial membrane from damage (Cory et al., Nat. Rev. Cancer 2:647-656, 2002). To determine if the induction of apoptosis mediated by romidepsin in 4242Eμ-myc/Bcl-2 and 229Eμ-myc/Bcl-2 lymphomas was via perturbation of the mitochondrial membrane or through some other mechanism, HDACi-induced mitochondrial outer membrane permeabilization (MOMP) was quantitated by staining with tetramethylrhodamine ethyl ester (Molecular Probes).
as §2

[7] = tested on: Eμ-myc lymphomas; assay: as above
Experimental: as §4, §5, §2

[8] = increasing concentrations over 24 h

Oxamflatin
acetylation of histones H3 and H4 [1]: induced equivalent acetylation of histones H3 and H4
% G1 ([2]; 24 hr): 59.4%
% G2/M ([2]; 24 hr): 18.0%
% S phase ([2]; 24 hr): 8.2%
% subG1 ([2]; 24 hr): 8.4%
% G1 ([2]; 48 hr): 62.3%
% G2/M ([2]; 48 hr): 15.3%
% S phase ([2]; 48 hr): 8.4%
% subG1 ([2]; 48 hr): 5.9%
% G1 ([2]; 72 hr): 66.7%
% G2/M ([2]; 72 hr): 15.8%
% S phase ([2]; 72 hr): 9.7%
% subG1 ([2]; 72 hr): 4.6%
% G1 ([3]; 24 hr): 50.0%
% G2/M ([3]; 24 hr): 28.8%
% S phase ([3]; 24 hr): 14.4%
% subG1 ([3]; 24 hr): 2.7%
% G1 ([3]; 48 hr): 62.6%
% G2/M ([3]; 48 hr): 21.4%
% S phase ([3]; 48 hr): 10.8%
% subG1 ([3]; 48 hr): 2.6%
% G1 ([3]; 72 hr): 78.2%
% G2/M ([3]; 72 hr): 12.0%
% S phase ([3]; 72 hr): 2.5%
% subG1 ([3]; 72 hr): 6.5%
plasma membrane integrity and mitochondrial function [4, 8]: dose-dependent loss of plasma membrane integrity and mitochondrial function
cell cycle analysis: DNA fragmentation ([4]; increasing doses): DNA fragmentation occurred
cell killing in time course ([4]; parental Eμ-myc lymphomas, within the first 24 h, 3 nmol/L romidepsin or 0.1 μmol/L oxamflatin): effectively killed
plasma membrane integrity and mitochondrial function [5, 8]: unaffected
cell cycle analysis ([5]; increasing doses): arrested in the G1 phase
cell killing in time course ([6]; 0.1 μmol/L, 72 h of continuous exposure): conferred resistance to oxamflatin
cell killing (outer cell membrane damage, loss of mitochondrial membrane potential) ([6]; 24-h dose-response assay, Bcl-2 overexpressing): but not Eμ-myc/Bcl-2 lymphomas
cell killing (outer cell membrane damage, loss of mitochondrial membrane potential) ([7]; 24-h dose-response assay): could effectively kill
concentration of HDACi required to kill ˜70% of Eμ-myc lymphomas following 24-h treatment ([7]; 24-h treatment): 0.1 µmol/L

Source: patent publication US20110269699A1, “CANCER THERAPY” (priority 2008, published 2011)
